# Measured values from patent publication US20100099676A1 (SHIONOGI & CO., LTD., priority 2006, published 2010).
# Legend:
# Assay in all cases: Enzyme inhibiting activity of MMPs, fluorogenic peptide substrate
# Format in all cases: biochemical
# [1] = biological target: T1, MMP-13 (Homo sapiens, UniProt P45452); conditions: APMA-activated proenzyme; substrate MOCAc-Pro-Leu-Gly-Leu-A2Pr(DNP)-Ala-Arg-NH2, fluorescent intensity; read-out: IC50 MMP-13
# T1 construct: purchased Calbiochem (EMD/MERCK Biosciences)
# Experimental: (§1) Various human MMPs (MMP-2, MMP-9 and MMP-13) were purchased from Calbiochem (EMD/MERCK Biosciences).
# Since the purchased MMP-13 was Proenzyme, the activated one was used, which was incubated at 37° C. for 2 hours after the successive addition of an assay buffer (containing 50 mM Tris-HCl (pH7.6), 0.3 M NaCl, 10 mM CaCl2, 0.005% Brij35) and APMA (final concentration 1 mM) to the enzyme solution.
# (§2) The enzyme activity of MMPs was measured according to the method described in C. Graham Knight, Frances Willenbrock and Gillian Murphy: A novel coumarin-labelled peptide for sensitive continuous assays of the matrix metalloproteinases: FEBS LETT., 296, (1992), 263-266. As a substrate, MOCAc-Pro-Leu-Gly-Leu-A2Pr(DNP)- Ala-Arg-NH2 (Peptide Institute, Inc. Osaka, Japan) was used, and the following four assays are performed per compound (inhibitor) for measuring the inhibiting activity.
# (§3) (A) Substrate (synthetic substrate), enzyme (MMPs), inhibitor
# (§4) (B) Substrate (synthetic substrate), inhibitor
# (§5) (C) Substrate (synthetic substrate), enzyme (MMPs)
# (§6) (D) Substrate (synthetic substrate)
# (§7) In each assay, the fluorescent intensity was measured, and inhibition (%) was calculated by the following equation.
# (§8) Inhibition (%)=[I−(A−B)/(C−D)]×100
# (§9) IC50 indicates a concentration at which inhibition (%) is 50%.
# [2] = biological target: T2, MMP-9 (Homo sapiens, UniProt P14780); conditions: substrate MOCAc-Pro-Leu-Gly-Leu-A2Pr(DNP)-Ala-Arg-NH2, fluorescent intensity
# T2 construct: purchased Calbiochem (EMD/MERCK Biosciences)
# T2 sequence (P14780 94-707): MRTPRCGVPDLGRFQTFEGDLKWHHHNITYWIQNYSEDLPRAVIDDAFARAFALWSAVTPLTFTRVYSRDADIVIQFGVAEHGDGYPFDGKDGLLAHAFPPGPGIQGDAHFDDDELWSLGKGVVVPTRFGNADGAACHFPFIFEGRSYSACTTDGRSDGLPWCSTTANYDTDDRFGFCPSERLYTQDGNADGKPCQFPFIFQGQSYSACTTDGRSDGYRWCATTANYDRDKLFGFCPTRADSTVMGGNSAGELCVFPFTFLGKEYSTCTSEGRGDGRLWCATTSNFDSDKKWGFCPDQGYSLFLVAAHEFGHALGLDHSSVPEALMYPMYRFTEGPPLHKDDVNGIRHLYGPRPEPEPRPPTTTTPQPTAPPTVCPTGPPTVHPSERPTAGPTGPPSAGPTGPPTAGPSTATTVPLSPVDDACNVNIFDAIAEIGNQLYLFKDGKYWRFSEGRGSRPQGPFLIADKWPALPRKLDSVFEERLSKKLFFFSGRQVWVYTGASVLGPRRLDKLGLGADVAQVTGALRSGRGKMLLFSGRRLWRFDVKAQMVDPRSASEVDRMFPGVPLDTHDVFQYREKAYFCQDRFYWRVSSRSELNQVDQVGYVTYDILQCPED
# Experimental: as §1, §2, §3, §4, §5, §6, §7, §8, §9
# [3] = biological target: T3, MMP-2 (Homo sapiens, UniProt P08253); conditions: substrate MOCAc-Pro-Leu-Gly-Leu-A2Pr(DNP)-Ala-Arg-NH2, fluorescent intensity
# T3 construct: purchased Calbiochem (EMD/MERCK Biosciences)
# T3 sequence (P08253 110-660): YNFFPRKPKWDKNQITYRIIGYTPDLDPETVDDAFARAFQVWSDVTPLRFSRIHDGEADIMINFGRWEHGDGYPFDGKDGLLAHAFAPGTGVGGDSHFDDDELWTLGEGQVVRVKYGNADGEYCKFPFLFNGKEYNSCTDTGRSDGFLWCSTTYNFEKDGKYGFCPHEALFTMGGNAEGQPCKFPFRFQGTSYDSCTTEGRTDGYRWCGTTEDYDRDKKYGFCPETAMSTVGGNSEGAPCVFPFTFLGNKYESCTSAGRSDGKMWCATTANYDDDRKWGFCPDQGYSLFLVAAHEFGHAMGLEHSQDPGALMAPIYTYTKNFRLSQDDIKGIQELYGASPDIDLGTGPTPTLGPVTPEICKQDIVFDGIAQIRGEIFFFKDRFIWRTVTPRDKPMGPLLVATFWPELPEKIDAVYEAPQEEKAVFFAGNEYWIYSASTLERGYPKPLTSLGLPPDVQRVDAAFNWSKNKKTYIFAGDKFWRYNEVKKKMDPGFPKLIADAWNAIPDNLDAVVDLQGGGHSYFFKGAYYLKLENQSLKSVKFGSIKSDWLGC
# Experimental: as §1, §2, §3, §4, §5, §6, §7, §8, §9
IC50 [1] [nM],IC50 [2] [µM],IC50 [3] [µM],Compound
5,> 10,1 to 10,"COc1ccc(CNC(=O)c2cc(/C=C/c3ccc(N4CCN(S(=O)(=O)N[C@@H](C(=O)O)C(C)C)CC4)cc3)ccn2)cc1 [III-161, (R)-2-[4-(4-{(E)-2-[2-(4-methoxybenzylcarbamoyl)-pyridin-4-yl]-vinyl}-phenyl)-piperazine-1-sulfonylamino]-3-methylbutanoic acid]"
9,> 10,1 to 10,"CCOCCOc1ccc(C#Cc2ccc(N3CCN(S(=O)(=O)N[C@@H](C(=O)O)C(C)C)CC3)cc2)cc1C(=O)NCC#N [III-135, (R)-2-(4-{4-[3-(cyanomethylcarbamoyl)-4-(2-ethoxyethoxy)-phenylethynyl]-phenyl}-piperazine-1-sulfonylamino)-3-methylbutanoic acid]"
19,> 10,> 10,"CC(C)[C@@H](NS(=O)(=O)N1CCN(c2ccc(C#Cc3ccc4ccn(Cc5ccccc5)c(=O)c4c3)cc2)CC1)C(=O)O [III-27, (R)-2-{4-[4-(2-benzyl1-oxo-1,2-dihydroisoquinolin-7-ylethynyl)-phenyl]-piperazine-1-sulfonylamino}-3-methylbutanoic acid]"
26,> 10,> 10,"CC(=O)c1cccc2ccc(C#Cc3ccc(N4CCN(S(=O)(=O)N[C@@H](CO)C(=O)O)CC4)cc3)cc12 [III-24, (S)-2-{4-[4-(8-acetylnaphthalen-2-ylethynyl)-phenyl]-piperazine-1-sulfonylamino}-3-hydroxyproponic acid]"
3,> 10,1 to 10,"CC(C)[C@@H](NS(=O)(=O)N1CCN(c2ccc(C#Cc3ccnc(C(=O)NCc4ccc(C#N)cc4)c3)cc2)CC1)C(=O)O [Compound V-31, (R)-2-(4-{4-[2-(4-cyanobenzylcarbamoyl)-pyridin-4-ylethynyl]-phenyl}-piperazine-1-sulfonylamino)-3-methylbutanoic acid]"
6,> 10,1 to 10,"C[C@@H](NS(=O)(=O)N1CCN(c2ccc(C#Cc3cc(C(=O)NCc4ccccc4)c(=O)n(C)c3)cc2)CC1)C(=O)O [III-4, (R)-2-{4-[4-(5-benzylcarbamoyl-1-methyl-6-oxo-1,6-dihydropyridin-3-ylethynyl)-phenyl]-piperazine-1-sulfonylamino}-proponic acid]"
4,> 10,> 10,"CNC(=O)c1ccc(COc2cccc(-c3csc(C#Cc4ccc(N5CCN(S(=O)(=O)N[C@@H](C(=O)O)C(C)C)CC5)cc4)n3)c2)cc1 [Compound V-79, (R)-3-methyl-2-[4-(4-{4-[3-(4-methylcarbamoylbenzyloxy)-phenyl]-thiazol-2-ylethynyl}-phenyl)-piperazine-1-sulfonylamino]-butanoic acid]"
7,> 10,> 10,"CC(C)c1ccc(CNC(=O)c2cc(C#Cc3ccc(N4CCN(S(=O)(=O)N[C@@H](C(=O)O)C(C)C)CC4)cc3)ccn2)cc1 [III-195, (R)-2-(4-{4-[2-(4-isopropylbenzylcarbamoyl)-pyridin-4-ylethynyl]-phenyl}-piperazine-1-sulfonylamino)-3-methylbutanoic acid]"
5,> 10,1 to 10,"CC(C)[C@@H](NS(=O)(=O)N1CCN(c2ccc(C#Cc3ccnc(C(=O)NCc4ccc(F)c(F)c4)c3)cc2)CC1)C(=O)O [III-189, (R)-2-(4-{4-[2-(3.4-difluorobenzylcarbamoyl)-pyridin-4-ylethynyl]-phenyl}-piperazine-1-sulfonylamino)-3-methylbutanoic acid]"
20,> 10,> 10,"COc1ccc(Cn2ccc3ccc(C#Cc4ccc(N5CCN(S(=O)(=O)N[C@H](C(=O)O)C(C)C)CC5)cc4)cc3c2=O)cc1 [Compound V-37, (S)-2-(4-{4-[2-(4-methoxybenzyl)-1-oxo-1,2-dihydroisoquinolin-7-ylethynyl]-phenyl}-piperazine-1-sulfonylamino)-3-methylbutanoic acid]"
13,> 10,> 10,"CCCCC(=O)c1cn(C)c2ccc(C#Cc3ccc(N4CCN(S(=O)(=O)N[C@H](C)C(=O)O)CC4)cc3)cc12 [III-45, (R)-2-{4-[4-(1-methyl-3-pentanoyl-1H-indol-5-ylethynyl)-phenyl]-piperazine-1-sulfonylamino}-proponic acid]"
26,> 10,> 10,"CC(C)[C@@H](NS(=O)(=O)N1CCN(c2ccc(C#Cc3ccnc(C(=O)NCc4ccc(C(F)(F)F)cc4)c3)cc2)CC1)C(=O)O [III-194, (R)-3-methyl-2-(4-{4-[2-(4-trifluoromethylbenzylcarbamoyl)-pyridin-4-ylethynyl]-phenyl}-piperazine-1-sulfonylamino)-butanoic acid]"
24,> 10,1 to 10,"CC(C)[C@@H](NS(=O)(=O)N1CCN(c2ccc(C#Cc3ccc4ccnc(C(N)=O)c4c3)cc2)CC1)C(=O)O [Compound V-88, (R)-2-{4-[4-(1-carbamoylisoquinolin-7-ylethynyl)-phenyl]-piperazine-1-sulfonylamino}-3-methylbutanoic acid]"
22,> 10,1 to 10,"CC(C)[C@@H](NS(=O)(=O)N1CCN(c2ccc(C#Cc3cc(C(=O)NCc4ccccc4)c(=O)n(C)c3)cc2)CC1)C(=O)O [III-30, (R)-2-{4-[4-(5-benzylcarbamoyl-1-methyl-6-oxo-1,6-dihydropyridin-3-ylethynyl)-phenyl]-piperazine-1-sulfonylamino}-3-methylbutanoic acid]"
9,> 10,1 to 10,"CC(C)[C@@H](NS(=O)(=O)N1CCN(c2ccc(C#Cc3ccnc(C(=O)NCc4ccccc4)c3)cc2)CC1)C(=O)O [III-177, (R)-2-{4-[4-(2-benzylcarbamoylpyridin-4-ylethynyl)-phenyl]-piperazine-1-sulfonylamino}-3-methylbutanoic acid]"

Compound,IC50 [1] [nM],IC50 [2] [µM],IC50 [3] [µM]
"B.CC(C)[C@@H](NS(=O)(=O)N1CCN(c2ccc(C#Cc3ccnc(C(=O)NCc4ccc(CN(C)C)cc4)c3)cc2)CC1)C(=O)O [III-153, (R)-2-(4-{4-[2-(4-dimethylaminomethylbenzylcarbamoyl)-pyridin-4-ylethynyl]-phenyl}-piperazine-1-sulfonylamino)-3-methylbutanoic acid borane complex]",4,> 10,1 to 10
"CC(C)COc1ccc(C#Cc2ccc(N3CCN(S(=O)(=O)N[C@@H](C(=O)O)C(C)C)CC3)cc2)cc1C(=O)NCc1ccc(S(C)(=O)=O)cc1 [Compound V-6, (R)-2-(4-{4-[4-isobutoxy-3-(4-methanesulfonylbenzylcarbamoyl)-phenylethynyl]-phenyl}-piperazine-1-sulfonylamino)-3-methylbutanoic acid]",19,> 10,> 10
"CC(C)[C@@H](NS(=O)(=O)N1CCN(c2ccc(C#Cc3ccnc(C(=O)NCc4ccc(CNC(=O)OC(C)(C)C)cc4)c3)cc2)CC1)C(=O)O [III-223, (R)-2-[4-(4-{2-[4-(tert-butoxycarbonylaminomethyl)-benzylcarbamoyl]-pyridin-4-ylethynyl}-phenyl)-piperazine-1-sulfonylamino]-3-methylbutanoic acid]",17,> 10,1 to 10
